According to PMC11156954, “Inhibition and transport mechanisms of the ABC transporter hMRP5” (Nature Communications, 2024):
No end group written: not given here.

Tests used:
GFP-hMRP5 = assay: Doxorubicin transport assay in Xenopus laevis oocytes; type: cell-based, human; conditions: oocytes expressing both hMRP5 and M5PI vs only hMRP5; 200 μM doxorubicin, 180 min; two-tailed t-test *P = 0.0442
Procedure: The transport assay was essentially done and modified as described. In brief, the cRNAs of C-terminal GFP-tagged hMRP5 and C-terminal mcherry-tagged M5PI were prepared from the linearized pcs2CAG vector DNA templates using the mMESSAGE mMACHINE T7 transcription system (Thermo Scientific, AM1344). Xenopus oocytes were injected with approximately 30 nl of cRNA (GFP-tagged hMRP5 and mcherry-tagged M5PI have the equal quantity 30 ng) or water after maintained in ND96 solution (96 mM NaCl, 2 mM KCl, 1 mM MgCl2, 1.8 mM CaCl2, 5 mM HEPES, pH 7.4) overnight. After 3 days of culture, the GFP and mcherry fluorescence of oocytes was detected using Nikon Confocal A1R, and oocytes showing similar fluorescence intensity were selected for assay. Then, oocytes were pre-incubated in Kulori buffer (90 mM NaCl, 1 mM KCl, 1 mM MgCl2, 5 mM HEPES, pH 7.4) for 5 min before being transferred to 1 ml Kulori buffer containing 200 μM doxorubicin for 180 min. The assay was stopped by removing the buffer and then washed with Kulori buffer at least 3 times and transferred into 1.5 ml tubes (3 oocytes per tube). Excess washing buffer was removed from the tube, and then 50 μl 50% methanol was added to the tube for oocyte homogenization by pipetting. The homogenized samples were centrifuged at 10,000 × g for 10 min at 4 °C, and the supernatants were transferred into new tubes and incubated at −20 °C until further analysis. The samples were acquired with a Q Exactive mass spectrometer coupled with UltiMate 3000 liquid chromatography system (Thermo scientific, CA, USA) after centrifugation at 20,000 × g for 15 min at 4 °C. A Hypersil GOLDTM C18 column (2.1 ×100 mm, 1.9 μm, Thermo Scientific) was used at a flow rate of 0.3 ml min^−1 for separation. Mobile phase A was 0.1% formic acid, while mobile phase B was acetonitrile modified with 0.1% formic acid. The mass spectrometer was operated in positive mode with a spray voltage of 3.5 kV. Full scan mass spectrometry data were recorded from the m/z range of 80–800. A standard dilution curve for quantification of doxorubicin was done. Statistical analysis of the transport assay results was performed using GraphPad Prism. Source data is provided as Source Data 6. The mass spectrometry data is provided as Supplementary Data 3.

hMRP5-Δ1-94 = biological target: T1, hMRP5-Δ1-94 (Homo sapiens, UniProt O15440); assay: cryo-EM of the reconstituted peptide complex; type: binding; conditions: peptide and hMRP5-Δ1-94 at 2:1 ratio, on ice, 1 h; inward-open complex
T1 construct: The codon-optimized full-length human ABCC5 gene encoding the MRP5 protein (UniProt ID: O15440); 8xHis (C); 2xstrep (C); made in house; host or cells: HEK293F
T1 sequence (O15440 95-1437 limits assumed, stated change not applied): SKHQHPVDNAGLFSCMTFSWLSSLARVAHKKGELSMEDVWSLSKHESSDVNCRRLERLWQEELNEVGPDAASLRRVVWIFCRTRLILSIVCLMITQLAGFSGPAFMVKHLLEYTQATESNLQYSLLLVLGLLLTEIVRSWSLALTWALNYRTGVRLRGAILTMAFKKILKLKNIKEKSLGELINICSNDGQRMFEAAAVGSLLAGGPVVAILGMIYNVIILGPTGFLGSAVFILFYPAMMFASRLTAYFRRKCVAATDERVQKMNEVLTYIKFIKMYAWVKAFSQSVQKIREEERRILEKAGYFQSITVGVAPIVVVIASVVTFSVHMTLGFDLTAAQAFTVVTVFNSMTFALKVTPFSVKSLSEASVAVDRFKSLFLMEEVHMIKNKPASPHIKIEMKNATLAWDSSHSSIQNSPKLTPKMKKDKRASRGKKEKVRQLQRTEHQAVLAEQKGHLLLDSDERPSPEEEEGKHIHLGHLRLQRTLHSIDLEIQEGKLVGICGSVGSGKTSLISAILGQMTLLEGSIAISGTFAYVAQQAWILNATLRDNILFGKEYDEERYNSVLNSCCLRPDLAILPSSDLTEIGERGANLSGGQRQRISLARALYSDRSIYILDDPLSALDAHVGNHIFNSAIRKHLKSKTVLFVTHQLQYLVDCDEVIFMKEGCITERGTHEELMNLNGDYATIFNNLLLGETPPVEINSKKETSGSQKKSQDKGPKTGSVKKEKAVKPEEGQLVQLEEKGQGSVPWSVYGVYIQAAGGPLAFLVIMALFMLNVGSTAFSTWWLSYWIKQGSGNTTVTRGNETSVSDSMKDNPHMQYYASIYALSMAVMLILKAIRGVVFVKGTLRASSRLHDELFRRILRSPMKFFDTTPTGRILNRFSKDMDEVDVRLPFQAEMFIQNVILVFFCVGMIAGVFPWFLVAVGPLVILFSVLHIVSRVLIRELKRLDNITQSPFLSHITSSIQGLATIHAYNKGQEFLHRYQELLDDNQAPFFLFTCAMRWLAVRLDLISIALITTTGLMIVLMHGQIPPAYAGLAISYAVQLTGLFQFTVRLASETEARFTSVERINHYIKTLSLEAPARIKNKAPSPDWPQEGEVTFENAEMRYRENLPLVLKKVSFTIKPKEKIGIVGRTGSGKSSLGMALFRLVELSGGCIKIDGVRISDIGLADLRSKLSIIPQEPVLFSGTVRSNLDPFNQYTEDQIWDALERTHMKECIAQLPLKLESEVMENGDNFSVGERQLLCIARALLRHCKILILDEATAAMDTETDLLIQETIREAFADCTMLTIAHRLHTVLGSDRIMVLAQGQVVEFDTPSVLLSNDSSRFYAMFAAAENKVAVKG
Procedure: To assess if D35C-E75C can structurally block the transport pathway, we incubated it with hMRP5-Δ1-94 at a 2:1 ratio for in vitro reconstitution. The resulting high-resolution structure of the reconstituted complex maintained an inward-open conformation with both NBDs separated (Fig. 4c and Supplementary Fig. 7a–d). […] Given its ability to effectively occlude the binding pocket, we termed the D35C-E75C peptide MRP5 potential peptide inhibitor (M5PI).
Freshly purified MRP5 protein was concentrated to ~5 mg/ml. Then, 5 μl proteins were added to the freshly glow-discharged (0.39 mBar air, 15 mA, 50 s) holey carbon grid (Quantifoil Au R1.2/1.3, 300 mesh). The grids were plunge-frozen in liquid ethane using an FEI Vitrobot Mark IV (Thermo Fisher Scientific) under the following conditions: waiting time, 11 s; blot time, 4 s; blot force, −2; temperature, 10 °C; and humidity, 100%. Next, the grids were transferred to and stored in liquid nitrogen until data acquisition. For the peptide M5PI-bound complex, the peptide and hMRP5-Δ1-94 were incubated together on ice at a ratio of 2:1 for 1 h before vitrification. […]
The single-particle analysis procedures for all states are summarized in the supplementary information (Supplementary Figs. 1, 2, 4, 5, 7 and 8). […] The overall resolution of the final map was determined by the 0.143 criterion of the gold-standard Fourier shell correlation. […]

CSKFRRTRPLECQDALETAARAEGLSLDASMHSQLRILDEC (cysteines drawn unpaired) [M5PI]
inhibition of doxorubicin transport, in words (GFP-hMRP5): contained a relatively higher amount of doxorubicin than oocytes expressing only hMRP5
EM density of bound peptide (hMRP5-Δ1-94): clear EM density for the bound D35C-E75C peptide in the central cavity
